Source: ChEMBL document CHEMBL3044888, “Fungicidal activity of indole derivatives against some plant pathogenic fungi” (J Pestic Sci, 2010)
In brackets after ≈: the same amount, converted by molar mass.

Columns and labels:
Rhizoctonia solani [1] = test: In vivo effect on peroxidase activity in Rhizoctonia solani assessed as reduced sugar content per gram of dry hyphal at 0.5 times of IC50 concentration (reference value: 17.3 +/- 1 mg/g of dry weight); type: functional
Peroxidase = target: T1, Peroxidase (Macrophomina phaseolina (strain MS6) (Charcoal rot fungus), UniProt K2RV19); test: Activation of peroxidase activity in Macrophomina phaseoli
T1 sequence (K2RV19 whole entry): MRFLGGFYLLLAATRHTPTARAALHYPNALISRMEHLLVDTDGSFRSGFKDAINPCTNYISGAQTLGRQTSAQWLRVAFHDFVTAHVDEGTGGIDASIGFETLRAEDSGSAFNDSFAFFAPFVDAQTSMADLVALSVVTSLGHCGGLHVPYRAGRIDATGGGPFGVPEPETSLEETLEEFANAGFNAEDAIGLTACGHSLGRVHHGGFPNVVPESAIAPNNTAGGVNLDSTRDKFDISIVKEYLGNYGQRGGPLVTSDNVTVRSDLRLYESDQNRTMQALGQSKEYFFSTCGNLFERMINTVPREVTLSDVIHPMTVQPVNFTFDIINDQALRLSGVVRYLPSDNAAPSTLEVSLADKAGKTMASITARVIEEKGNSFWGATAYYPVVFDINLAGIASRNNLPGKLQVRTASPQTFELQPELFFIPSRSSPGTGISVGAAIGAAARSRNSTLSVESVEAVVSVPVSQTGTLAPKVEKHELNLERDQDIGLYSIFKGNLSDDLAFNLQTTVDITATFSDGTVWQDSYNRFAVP

[2] = tested on: Globisporangium debaryanum; test: Inhibition of peroxidase activity in Pythium debaryanum at 2 times of IC50 concentration
[3] = Activation of peroxidase activity in Rhizoctonia solani
[4] = Inhibition of peroxidase activity in Pythium debaryanum; parameters: species or system Globisporangium debaryanum
[5] = tested on: Globisporangium debaryanum; test: Inhibition of peroxidase activity in Pythium debaryanum at 1 times of IC50 concentration
[6] = tested on: Globisporangium debaryanum; test: In vivo effect on peroxidase activity in Pythium debaryanum assessed as DNA content at 0.5 times of IC50 concentration (reference value: 31 +/- 0.8 mg/l); type: functional
[7] = Inhibition of polyphenoloxidase activity in Pythium debaryanum; parameters: species or system Globisporangium debaryanum
Rhizoctonia solani [8] = test: In vivo effect on peroxidase activity in Rhizoctonia solani assessed as total soluble sugar content per gram of dry hyphal at 1 times of IC50 concentration (reference value: 20.1 +/- 0.8 mg/g of dry weight); type: functional
[9] = tested on: Globisporangium debaryanum; test: In vivo effect on peroxidase activity in Pythium debaryanum assessed as RNA content at 0.1 times of IC50 concentration (reference value: 32.2 +/- 0.7 mg/l); type: functional
Fusarium culmorum [10] = test: Inhibition of peroxidase activity in Fusarium culmorum at 2 times of IC50 concentration
[11] = target: T2, Peroxidase (Macrophomina phaseolina (strain MS6) (Charcoal rot fungus)) (UniProt K2RV19); test: Inhibition of peroxidase activity in Macrophomina phaseoli at 1 times of IC50 concentration
T2 sequence (whole entry): T1 sequence (K2RV19 whole entry)

[12] = Inhibition of peroxidase activity in Fusarium culmorum
[13] = Inhibition of polyphenoloxidase activity in Rhizoctonia solani
Rhizoctonia solani [14] = test: Inhibition of peroxidase activity in Rhizoctonia solani at 0.1 times of IC50 concentration
Fusarium culmorum [15] = test: Inhibition of peroxidase activity in Fusarium culmorum at 1 times of IC50 concentration
[16] = target: T2, Peroxidase (Macrophomina phaseolina (strain MS6) (Charcoal rot fungus)); test: Inhibition of peroxidase activity in Macrophomina phaseoli at 2 times of IC50 concentration
[17] = Activation of polyphenoloxidase activity in Pythium debaryanum; parameters: species or system Globisporangium debaryanum
[18] = target: T2, Peroxidase (Macrophomina phaseolina (strain MS6) (Charcoal rot fungus)); test: Inhibition of peroxidase activity in Macrophomina phaseoli at 0.5 times of IC50 concentration

| Structure (SMILES) | Activity (Rhizoctonia solani [1]) | AC50 (Peroxidase) | inhibition [2] | AC50 [3] | IC50 [4] | inhibition [5] | Activity [6] | IC50 [7] | Activity (Rhizoctonia solani [8]) | Activity [9] | inhibition (Fusarium culmorum [10]) | inhibition [11] | IC50 [12] | IC50 [13] | inhibition (Rhizoctonia solani [14]) | inhibition (Fusarium culmorum [15]) | inhibition [16] | AC50 [17] | inhibition [18] |
| --- | --- | --- | --- | --- | --- | --- | --- | --- | --- | --- | --- | --- | --- | --- | --- | --- | --- | --- | --- |
| CC(=O)n1c(-c2ccccc2)cc2ccccc21 | 5.6 mg | < 25.1 µM | 25.7% | < 11.7 µg/mL | 96.14 µg/mL (≈ 409 µM) | 19.1% | 11.3 mg/L | 45.6 µg/mL (≈ 194 µM) | 2.8 mg | 27 mg/L | – | – | – | – | – | – | – | – | – |
| c1ccc(-c2cc3ccccc3[nH]2)cc1 [2-PHENYL-1H-INDOLE] | 16 mg | – | – | 14.5 µg/mL (≈ 75 µM) | – | – | 10.9 mg/L | – | 9.8 mg | 32.1 mg/L | 69.2% | 40.7% | 49.9 µg/mL (≈ 258 µM) | 80.3 µg/mL (≈ 416 µM) | 0% | 60.1% | 54.3% | 35.1 µg/mL (≈ 182 µM) | 26.7% |
